In patent US4493833A, “Syn-isomer of 3,7-disubstituted-3-cephem-4-carboxylic acid compounds” (Fujisawa Pharmaceutical Co., Ltd., priority 1976, dated 1985):
Converted amounts (≈) assume the structure as drawn. Read-outs that look alike come from different tables or passages of the source.

Assays:
[1] = system: Escherichia coli NIHJ JC-2; assay: In vitro antibacterial activity, two-fold agar-plate dilution method; format: cell-based; conditions: NIHJJC2, HI-agar, 37° C., 20 hours
Experimental: (§1) In vitro antibacterial activity was determined by the two-fold agar-plate dilution method as described below.
(§2) One loopful of an overnight culture of each test strain in Trypticase-soy broth (10^8 viable cells per ml.) was streaked on heart infusion agar (HI-agar) containing-graded concentrations of antibiotics, and the minimal inhibitory concentration (MIC) was expressed in terms of μg/ml. after incubation at 37° C. for 20 hours.

[2] = system: Klebsiella pneumoniae 417; assay: as above; format: cell-based
Experimental: as §1, §2

[3] = system: Proteus mirabilis 525; assay: as above; format: cell-based; conditions: HI-agar, 37° C., 20 hours
Experimental: as §1, §2

[4] = system: Escherichia coli 29; assay: MIC of strain used in the mouse infection test; format: cell-based; conditions: Escherichia coli, 29, 20 h
Experimental: as §1
(§3) One loopful of an overnight culture of each test strain in Trypticase-soy broth ([…]) was streaked on heart infusion agar (HI-agar) containing-graded concentrations of antibiotics, and the minimal inhibitory concentration (MIC) was expressed in terms of μg/ml. after incubation at 37° C. for 20 hours.

[5] = system: Escherichia coli 29; assay: Protecting effect against experimental infections in mice; format: in vivo, Male ICR strain mice; conditions: s.c. one hour after challenge, one week
Experimental: (§4) Male ICR strain mice aged 4 weeks, each weighing 20-23 g were used in groups of 8 mice. The test bacteria were cultured overnight at 37° C. on HI-agar and then suspended in 2.5-5% mucin solution to obtain the suspension corresponding to each challenge cells. Mice were inoculated intraperitoneally with 0.5 ml of the suspension. A solution containing each test compounds was given subcutaneously to the mice in various dosage one hour after challenge. The ED50 values were calculated from the number of surviving mice for each dosage after one week of observation.

[6] = Acute toxicity in mice; format: in vivo, ICR strain mice; conditions: 2 g intravenously; 10 mice; one week observation
Experimental: The same strain mice as aforesaid protecting test against experimental infections were used in groups of 10 mice. Test compound (8) (2 g) was administered intravenously to said mice.

[7] = system: Serratia marcesens 4; assay: MIC of strain used in the mouse infection test; format: cell-based; conditions: Serratia, 4, 20 h
Experimental: as §1, §3

[8] = system: Serratia marcesens 4; assay: Protecting effect against experimental infections in mice; format: in vivo, Male ICR strain mice; conditions: challenge 1.0 × 10^6 cells/mouse i.p.; s.c. one hour after challenge; one week
Experimental: as §4

[9] = system: Proteus vulgaris 1; assay: In vitro antibacterial activity, two-fold agar-plate dilution method; format: cell-based; conditions: HI-agar, 37° C., 20 hours
Experimental: as §1, §2

[10] = system: Bacillus subtilis ATCC 6633; assay: as above; format: cell-based; conditions: ATCC6633, HI-agar, 37° C., 20 hours
Experimental: as §1, §2
(§5) One loopful of an overnight culture of each test strain in Trypticase-soy broth (10^8 viable cells per ml.) was streaked on heart infusion agar (HI-agar) containing graded concentrations of test compounds, and the minimal inhibitory concentration (MIC) was expressed in terms of μg/ml. after incubation at 37° C. for 20 hours.

[11] = system: Proteus vulgaris IAM-1025; assay: as above; format: cell-based; conditions: IAM1025, HI-agar, 37° C., 20 hours
Experimental: as §1, §2
One loopful of an overnight culture of each test strain in Trypticase-soy broth (10^8 viable cells per ml.) was streaked on heart infusion agar (HI-agar) containing graded concentration of test compounds, and the minimal inhibitory concentration (MIC) was expressed in terms of μg/ml after incubation at 37° C. for 20 hours.

[12] = system: Escherichia coli 100; assay: MIC of strain used in the mouse infection test; format: cell-based
Experimental: as §1, §3

[13] = system: Escherichia coli 100; assay: Protecting effect against experimental infections in mice; format: in vivo, Male ICR strain mice; conditions: challenge 3.5 × 10^4 cells/mouse i.p.; s.c. one hour after challenge; one week
Experimental: as §4

[14] = system: Pseudomonas aeruginosa NCTC-10490; assay: In vitro antibacterial activity, two-fold agar-plate dilution method; format: cell-based; conditions: NCTC10490, HI-agar, 37° C., 20 hours
Experimental: as §1, §5

[15] = Klebsiella pneumoniae 417, HI-agar, 37° C., 20 hours, read-out: MIC
[16] = challenge 6 × 10^6 cells/mouse i.p.

| Compound | MIC [1] [µg/mL] | MIC [2, 15] [µg/mL] | MIC [3] [µg/mL] | further results |
| --- | --- | --- | --- | --- |
| CO/N=C(/C(=O)NC1C(=O)N2C(C(=O)O)=C(CSc3nnnn3C)CSC12)c1cccc(O)c1 (stereo not shown) [(3)] | 50 (≈ 98.9 µM) | 6.25 (≈ 12.4 µM) | 25 (≈ 49.5 µM) | – |
| CO/N=C(/C(=O)NC1C(=O)N2C(C(=O)O)=C(CSc3nnnn3C)CSC12)c1csc(N)n1 (stereo not shown) [(7)] | 12.5 (≈ 24.4 µM) | 6.25 (≈ 12.2 µM) | 3.13 (≈ 6.12 µM) | – |
| CO/N=C(\C(=O)NC1C(=O)N2C(C(=O)O)=C(COC(C)=O)CSC12)c1csc(N)n1 (stereo not shown) [(8)] | 0.1 (≈ 0.22 µM) | 0.1 (≈ 0.22 µM) | 0.05 (≈ 0.11 µM) | MIC ([4]; 10^6 viable cells/ml): ≤ 0.03 µg/mL; MIC ([4]; 10^8 viable cells/ml): 0.2 µg/mL; ED50 (S.C.) [5, 16]: < 0.005 mg/mouse; Acute toxicity (survival, disorder) [6]: All mice survived without showing any disorder |
| CO/N=C(/C(=O)NC1C(=O)N2C(C(=O)O)=C(COC(C)=O)CSC12)c1csc(N)n1 (stereo not shown) [(9)] | 3.13 (≈ 6.87 µM) | – | 0.78 (≈ 1.71 µM) | MIC ([2]; Klebsiella pneumoniae, 417, 20 h): 1.56 µg/mL (≈ 3.43 µM) |
| CO/N=C(\C(=O)NC1C(=O)N2C(C(=O)O)=C(CSc3nncs3)CSC12)c1csc(NC=O)n1 (stereo not shown) [(10)] | 0.78 (≈ 1.44 µM) | 1.56 (≈ 2.88 µM) | 0.39 (≈ 0.72 µM) | – |
| CO/N=C(/C(=O)NC1C(=O)N2C(C(=O)O)=C(CSc3nncs3)CSC12)c1csc(NC=O)n1 (stereo not shown) [(11)] | 12.5 (≈ 23.1 µM) | 3.13 (≈ 5.78 µM) | 3.13 (≈ 5.78 µM) | – |
| CO/N=C(\C(=O)NC1C(=O)N2C(C(=O)O)=C(COC(C)=O)CSC12)c1csc(NC=O)n1 (stereo not shown) [(12)] | 1.56 (≈ 3.23 µM) | 1.56 (≈ 3.23 µM) | 0.78 (≈ 1.61 µM) | MIC ([7]; 10^6 viable cells/ml): 6.25 µg/mL; MIC ([7]; 10^8 viable cells/ml): 200 µg/mL; ED50 (S.C.) [8]: 0.018 mg/mouse |
| CO/N=C(\C(=O)NC1C(=O)N2C(C(=O)O)=C(COC(N)=O)CSC12)c1csc(N)n1 (stereo not shown) [(13)] | 1.56 (≈ 3.42 µM) | 0.5 (≈ 1.1 µM) | 0.025 (≈ 0.0548 µM) | MIC ([7]; 10^6 viable cells/ml): ≤ 0.025 µg/mL; MIC ([7]; 10^8 viable cells/ml): 25 µg/mL; ED50 (S.C.) [8]: < 0.156 mg/mouse |
| CO/N=C(\C(=O)NC1C(=O)N2C(C(=O)O)=C(CSc3nncs3)CSC12)c1csc(N)n1 (stereo not shown) [(14)] | 0.1 (≈ 0.195 µM) | 0.2 (≈ 0.389 µM) | 0.1 (≈ 0.195 µM) | MIC ([4]; 10^6 viable cells/ml): ≤ 0.03 µg/mL; MIC ([4]; 10^8 viable cells/ml): ≤ 0.03 µg/mL; ED50 (S.C.) [5, 16]: < 0.005 mg/mouse |
| CO/N=C(\C(=O)NC1C(=O)N2C(C(=O)O)=C(CO)CSC12)c1csc(N)n1 (stereo not shown) [(15)] | 0.78 (≈ 1.89 µM) | 0.05 (≈ 0.121 µM) | 0.1 (≈ 0.242 µM) | – |
| CO/N=C(\C(=O)NC1C(=O)N2C(C(=O)O)=C(CSc3nnc(C)s3)CSC12)c1csc(N)n1 (stereo not shown) [(16)] | 0.39 (≈ 0.739 µM) | 0.1 (≈ 0.19 µM) | 0.39 (≈ 0.739 µM) | – |
| CO/N=C(\C(=O)NC1C(=O)N2C(C(=O)O)=C(CSc3nncn3C)CSC12)c1csc(N)n1 (stereo not shown) [(17)] | 0.2 (≈ 0.392 µM) | 0.2 (≈ 0.392 µM) | 0.39 (≈ 0.764 µM) | – |
| CO/N=C(\C(=O)NC1C(=O)N2C(C(=O)O)=C(COC(N)=O)CSC12)c1csc(NC(=O)C(F)(F)F)n1 (stereo not shown) [(18)] | 3.13 (≈ 5.67 µM) | 0.05 (≈ 0.0905 µM) | 0.025 (≈ 0.0453 µM) | – |
| C#CCO/N=C(\C(=O)NC1C(=O)N2C(C(=O)O)=C(COC(C)=O)CSC12)c1csc(N)n1 (stereo not shown) [(19)] | – | – | – | MIC [9]: 0.78 µg/mL (≈ 1.63 µM); MIC [10]: 3.13 µg/mL (≈ 6.53 µM); MIC [11]: 0.78 µg/mL (≈ 1.63 µM) |
| CC(C)O/N=C(\C(=O)NC1C(=O)N2C(C(=O)O)=C(COC(N)=O)CSC12)c1csc(N)n1 (stereo not shown) [(20)] | – | – | – | MIC [9]: 0.2 µg/mL (≈ 0.413 µM); MIC [10]: 1.56 µg/mL (≈ 3.22 µM); MIC [11]: 0.2 µg/mL (≈ 0.413 µM) |
| C=CCn1nnnc1SCC1=C(C(=O)O)N2C(=O)C(NC(=O)/C(=N\OC(C)C)c3csc(N)n3)C2SC1 (stereo not shown) [(21)] | – | – | – | MIC [9]: 0.78 µg/mL (≈ 1.38 µM); MIC [10]: 0.78 µg/mL (≈ 1.38 µM); MIC [11]: 0.78 µg/mL (≈ 1.38 µM) |
| CC(=O)OCC1=C(C(=O)O)N2C(=O)C(NC(=O)Cc3cccs3)C2SC1 (stereo not shown) [CET, 7(2-Thienyl)acetamidocephalosporanic acid, reference compound] | – | – | – | MIC ([4]; 10^6 viable cells/ml): 3.13 µg/mL; MIC ([4]; 10^8 viable cells/ml): 12.5 µg/mL; ED50 (S.C.) [5, 16]: 1.402 mg/mouse |
| Cc1nnc(SCC2=C(C(=O)O)N3C(=O)C(NC(=O)Cn4cnnn4)C3SC2)s1 (stereo not shown) [CEZ Na, reference compound] | – | – | – | MIC ([4]; 10^6 viable cells/ml): 0.78 µg/mL; MIC ([4]; 10^8 viable cells/ml): 3.13 µg/mL; ED50 (S.C.) ([5]; challenge 5.5 × 10^5 cells/mouse i.p.): 0.182 mg/mouse |
| CO/N=C(\C(=O)N[C@@H]1C(=O)N2C(C(=O)O)=C(COC(N)=O)CS[C@H]12)c1ccco1 [Cefuroxime, reference compound] | – | – | – | MIC ([7]; 10^6 viable cells/ml): 50 µg/mL; MIC ([7]; 10^8 viable cells/ml): 400 µg/mL; MIC of used strain ([12]; 10^6 viable cells/ml): 12.5 µg/mL; MIC ([12]; 20 h, 10^8 viable cells/ml): 12.5 µg/mL; ED50 (S.C.) [8]: 4.329 mg/mouse; ED50 (S.C.) [13]: 1.158 mg/mouse |
| C=CCO/N=C(\C(=O)NC1C(=O)N2C(C(=O)O)=C(CSc3nnnn3CC=C)CSC12)c1csc(N)n1 (stereo not shown) [Test Compound (3), 7-[2-Allyloxyimino-2-(2-aminothiazol-4-yl)acetamido]-3-(1-allyl-1H-tetrazol-5-yl)thiomethyl-3-cephem-4-carboxylic acid] | – | – | – | MIC [14]: 6.25 µg/mL (≈ 11.1 µM); MIC [10]: 0.78 µg/mL (≈ 1.38 µM) |
| CO/N=C(\C(=O)NC1C(=O)N2C(C(=O)O)=C(CSc3nc(C)ns3)CSC12)c1csc(N)n1 (stereo not shown) [Test Compound (3), 7-[2-Methoxyimino-2-(2-aminothiazol-4-yl)acetamido]-3-(3-methyl-1,2,4-thiadiazol-5-yl)thiomethyl-3-cephem-4-carboxylic acid] | – | – | – | MIC [10]: 1.56 µg/mL (≈ 2.96 µM) |
